In US10168338B2, “Methods of identifying modulators of sestrin-gator-2 interaction for modulating mTORC1 activity” (Whitehead Institute for Biomedical Research, priority 2014, dated 2019):

Legend:
Sestrin3 = biological target: T1, Sestrin3 (Homo sapiens, UniProt P58005); test: [3H]-leucine binding to FLAG-Sestrin3 immunoprecipitated from HEK-293T cells; conditions: FLAG-tagged protein from HEK-293T
T1 construct: expressed in transfected cells; host or cells: HEK-293T, transient transfection of a pRK5-based cDNA plasmid, anti-FLAG immunoprecipitation
T1 sequence (P58005 1-492): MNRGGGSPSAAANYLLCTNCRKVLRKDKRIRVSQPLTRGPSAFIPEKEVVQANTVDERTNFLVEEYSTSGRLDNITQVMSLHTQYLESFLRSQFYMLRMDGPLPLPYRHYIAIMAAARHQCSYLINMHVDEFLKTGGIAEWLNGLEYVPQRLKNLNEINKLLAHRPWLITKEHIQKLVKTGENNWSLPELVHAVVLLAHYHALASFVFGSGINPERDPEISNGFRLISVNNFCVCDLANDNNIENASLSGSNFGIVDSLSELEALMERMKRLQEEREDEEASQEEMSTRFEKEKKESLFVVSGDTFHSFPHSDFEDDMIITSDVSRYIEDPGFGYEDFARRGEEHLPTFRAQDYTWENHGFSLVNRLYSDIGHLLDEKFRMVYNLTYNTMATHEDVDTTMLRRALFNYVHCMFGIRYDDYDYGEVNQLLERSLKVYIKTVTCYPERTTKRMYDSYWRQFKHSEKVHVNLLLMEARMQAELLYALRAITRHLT
Description: Four million HEK-293T cells were plated in a 15 cm plate four days prior to the experiment. Each plate yielded the protein for one sample. Forty-eight hours after plating, the cells were transfected via the polyethylenimine method (O. Boussif et al., PNAS (USA), 92:7297-7301 (1995)) with the pRK5-based cDNA expression plasmids indicated in the figures in the following amounts: 5 μgFLAG-Sestrin2; 12 μg of the negative control Rap2A; 5 μg WDR24; 2 μg WDR24 with 4 μg each of HA-Seh1L, HA-Sec13, HA-Mios, and HA-WDR59; 12 […] (CG11299-PD); 12 μgFLAG-Sestrin1.1; 12 μg FLAG-Sestrin1.2; 12 μg FLAG-Sestrin3; 12 μg FLAG-Sestrin2 mutants (L261A, E451A, S190A) and up to 20 μg total DNA with empty-PRK5. Forty-eight hours after transfection cells were lysed as described in Example 1. […]
For the binding assays, two tubes at a time were washed as previously indicated for immunoprecipitations. […] With a cut tip, each sample was mixed well and three 10 μl aliquots were separately quantified using a TriCarb® scintillation counter (PerkinElmer). This process was repeated in pairs for each sample, to ensure similar incubation and wash times for all samples analyzed across different experiments.

Sestrin2-GATOR2 complex [1] = biological target: T2, Sestrin2-GATOR2 complex (Homo sapiens, UniProt P58004); test: Amino acids added directly to immunopurified Sestrin2-GATOR2 complexes (immunoblot); assay type: binding
T2 construct: To isolate the FLAG-WDR24/endogenous-Sestrin2 complex; endogenous in cells; host or cells: HEK-293T cells stably expressing FLAG-WDR24; Sestrin2 and the other GATOR2 subunits are endogenous
T2 sequence (P58004 1-480): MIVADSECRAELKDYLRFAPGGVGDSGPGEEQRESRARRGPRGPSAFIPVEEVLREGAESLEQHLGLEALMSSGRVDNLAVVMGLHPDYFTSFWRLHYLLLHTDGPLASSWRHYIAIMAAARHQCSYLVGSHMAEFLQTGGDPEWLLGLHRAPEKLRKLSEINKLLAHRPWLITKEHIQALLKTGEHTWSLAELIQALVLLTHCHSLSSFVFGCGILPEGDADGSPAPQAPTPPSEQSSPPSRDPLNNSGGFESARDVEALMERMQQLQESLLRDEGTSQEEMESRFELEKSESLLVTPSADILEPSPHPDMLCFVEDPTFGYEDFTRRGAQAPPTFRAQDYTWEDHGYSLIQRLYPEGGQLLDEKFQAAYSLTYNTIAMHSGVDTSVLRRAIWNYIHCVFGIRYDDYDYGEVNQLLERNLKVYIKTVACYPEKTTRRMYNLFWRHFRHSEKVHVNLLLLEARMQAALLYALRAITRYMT
Description: (§1) We next tested if leucine acts directly on the Sestrin2-GATOR2 complex.
HEK-293T cells stably expressing FLAG-WDR24 were starved for all amino acids for 50 minutes, lysed and subjected to anti-FLAG immunoprecipitation as described previously. The GATOR2-Sestrin2 complexes immobilized on the agarose beads were washed twice in lysis buffer with 500 mM NaCl, as previously described, and then incubated for 10 minutes in 1 mL of cytosolic buffer with the indicated concentrations of individual amino acids. The amount of GATOR2 and Sestrin2 that remained bound was assayed by SDS-PAGE and immunoblotting as described previously.

Sestrin2-GATOR2 complex [2] = biological target: T2, Sestrin2-GATOR2 complex; test: Amino acids added to ice-cold detergent lysates of amino acid-starved HEK-293T cells, FLAG immunoprecipitation; assay type: binding; conditions: ice-cold detergent lysates of HEK-293T cells starved for all amino acids
Description: HEK-293T cells stably expressing the FLAG-tagged GATOR2 component WDR24 were starved of all amino acids for 50 minutes. Individual amino acids were added pre-lysis to the cell culture media or post-lysis to cell lysates prior to FLAG immunoprecipitation.
as §1

- binding of leucine to Sestrin3 (Sestrin3): only slightly above background
- effect on the Sestrin2-GATOR2 interaction in vitro (Sestrin2-GATOR2 complex [1]; 300 μM each, added directly to FLAG immunoprecipitates): disrupted the interaction
- EC50 (Sestrin2-GATOR2 complex [1]; added to purified complexes from amino acid-starved cells, equilibrium not attained, relative potency only, read-out: half maximal effect on disruption of the Sestrin2-GATOR2 complex): ~1 µM
- effect on Sestrin2-GATOR2 interaction when added to cell lysates (Sestrin2-GATOR2 complex [2]): abrogated the interaction
Structure (SMILES): CC(C)C[C@H](N)C(=O)O [leucine]
